Legend:
JAK3 = target: T1, JAK3 (Homo sapiens, UniProt P52333); assay: Kinobeads assay, JAK3 (competition binding in cell lysate, dot blot detection); conditions: mixed Molt4/Ramos lysate
T1 construct: endogenous in cells; host or cells: Molt4 (ATCC CRL-1582) and Ramos (ATCC CRL-1596) cell lysate; mixed Molt4/Ramos lysate 1:2
T1 sequence (P52333 1-1124): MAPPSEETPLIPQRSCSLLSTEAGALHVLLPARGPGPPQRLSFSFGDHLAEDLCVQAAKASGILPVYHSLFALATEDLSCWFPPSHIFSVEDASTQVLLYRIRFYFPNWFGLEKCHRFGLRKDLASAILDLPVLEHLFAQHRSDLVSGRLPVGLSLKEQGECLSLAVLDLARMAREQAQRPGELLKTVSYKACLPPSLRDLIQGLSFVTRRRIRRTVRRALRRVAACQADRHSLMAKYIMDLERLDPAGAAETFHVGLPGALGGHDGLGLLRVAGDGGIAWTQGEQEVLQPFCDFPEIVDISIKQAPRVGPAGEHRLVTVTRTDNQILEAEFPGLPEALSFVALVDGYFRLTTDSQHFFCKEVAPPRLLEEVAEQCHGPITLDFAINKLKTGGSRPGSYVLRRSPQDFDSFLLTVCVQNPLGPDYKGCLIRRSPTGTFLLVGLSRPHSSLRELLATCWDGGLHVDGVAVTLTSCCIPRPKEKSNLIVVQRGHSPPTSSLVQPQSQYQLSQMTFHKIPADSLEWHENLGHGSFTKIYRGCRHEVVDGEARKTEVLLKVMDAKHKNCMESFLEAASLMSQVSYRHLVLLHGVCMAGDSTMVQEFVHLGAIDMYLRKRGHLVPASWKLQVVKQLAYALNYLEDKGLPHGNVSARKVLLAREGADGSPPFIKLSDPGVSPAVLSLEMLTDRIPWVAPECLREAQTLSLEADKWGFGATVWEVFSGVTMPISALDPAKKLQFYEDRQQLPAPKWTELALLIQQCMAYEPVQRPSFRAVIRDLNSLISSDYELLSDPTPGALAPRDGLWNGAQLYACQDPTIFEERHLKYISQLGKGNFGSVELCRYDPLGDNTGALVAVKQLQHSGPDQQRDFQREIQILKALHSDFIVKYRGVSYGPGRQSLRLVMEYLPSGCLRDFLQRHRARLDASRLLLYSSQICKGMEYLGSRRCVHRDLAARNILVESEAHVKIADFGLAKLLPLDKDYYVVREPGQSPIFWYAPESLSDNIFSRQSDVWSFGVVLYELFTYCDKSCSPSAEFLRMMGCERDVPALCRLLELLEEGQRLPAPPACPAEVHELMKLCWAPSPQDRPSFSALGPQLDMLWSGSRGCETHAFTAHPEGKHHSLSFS
Experimental: (§1) The compounds of the present invention as described in the previous examples were tested in a Kinobeads™ assay as described for ZAP-70 (WO-A 2007/137867). Briefly, test compounds (at various concentrations) and the affinity matrix with the immobilized aminopyrido-pyrimidine ligand 24 were added to cell lysate aliquots and allowed to bind to the proteins in the lysate sample. After the incubation time the beads with captured proteins were separated from the lysate. Bound proteins were then eluted and the presence of JAK2 and JAK3 was detected and quantified using specific antibodies in a dot blot procedure and the Odyssey infrared detection system. Dose response curves for individual kinases were generated and IC50 values calculated. Kinobeads™ assays for ZAP-70 (WO-A 2007/137867) and for kinase selectivity profiling (WO-A 2006/134056) have been previously described.
(§2) 5×DP buffer: 250 mM Tris-HCl pH 7.4, 25% Glycerol, 7.5 mM MgCl2, 750 mM NaCl, 5 mM Na3VO4; filter the 5×DP buffer through a 0.22 μm filter and store in aliquots at −80° C. The 5×DP buffer is diluted with H2O to 1×DP buffer containing 1 mM DTT and 25 mM NaF.
(§3) Stock solutions of test compounds were prepared in DMSO. In a 96 well plate 30 μL solution of diluted test compounds at 5 mM in DMSO were prepared. Starting with this solution a 1:3 dilution series (9 steps) was prepared. For control experiments (no test compound) a buffer containing 2% DMSO was used.
(§4) Molt4 cells (ATCC catalogue number CRL-1582) and Ramos cells (ATCC catalogue number CRL-1596) were grown in 1 L Spinner flasks (Integra Biosciences, #182101) in suspension in RPMI 1640 medium (Invitrogen, #21875-034) supplemented with 10% Fetal Bovine Serum (Invitrogen) at a density between 0.15×10^6 and 1.2×10^6 cells/mL. Cells were harvested by centrifugation, washed once with 1×PBS buffer (Invitrogen, #14190-094) and cell pellets were frozen in liquid nitrogen and subsequently stored at −80° C. Cells were homogenized in a Potter S homogenizer in lysis buffer: 50 mM Tris-HCl, 0.8% NP40, 5% glycerol, 150 mM NaCl, 1.5 mM MgCl2, 25 mM NaF, 1 mM sodium vanadate, 1 mM DTT, pH 7.5. One complete EDTA-free tablet (protease inhibitor cocktail, Roche Diagnostics, 1873580) per 25 mL buffer was added. The material was dounced 10 times using a mechanized POTTER S, transferred to 50 mL falcon tubes, incubated for 30 minutes on ice and spun down for 10 minutes at 20,000 g at 4° C. (10,000 rpm in Sorvall SLA600, precooled). The supernatant was transferred to an ultracentrifuge (UZ)-polycarbonate tube (Beckmann, 355654) and spun for 1 hour at 100.000 g at 4° C. (33.500 rpm in Ti50.2, precooled). The supernatant was transferred again to a fresh 50 mL falcon tube, the protein concentration was determined by a Bradford assay (BioRad) and samples containing 50 mg of protein per aliquot were prepared. The samples were immediately used for experiments or frozen in liquid nitrogen and stored frozen at −80° C.
(§5) Cell lysate (approximately 50 mg protein per plate) was thawed in a water bath at room temperature and then stored on ice. To the thawed cell lysate 1×DP 0.8% NP40 buffer containing protease inhibitors (1 tablet for 25 mL buffer; EDTA-free protease inhibitor cocktail; Roche Diagnostics 1873580) was added in order to reach a final protein concentration of 10 mg/mL total protein. The diluted cell lysate was stored on ice. Mixed Molt4/Ramos lysate was prepared by combining one volume of Molt4 lysate and two volumes of Ramos lysate (ratio 1:2).
(§6) Plates were sealed and incubated for 3 hours in a cold room on a plate shaker (Heidolph tiramax 1000) at 750 rpm. Afterwards the plate was washed 3 times with 230 μL washing buffer (1×DP 0.4% NP40). The filter plate was placed on top of a collection plate (Greiner bio-one, PP-microplate 96 well V-shape, 65120) and the beads were then eluted with 20 μL of sample buffer (100 mM Tris, pH 7.4, 4% SDS, 0.00025% bromophenol blue, 20% glycerol, 50 mM DTT). […]

JAK2 = target: T2, JAK2 (Homo sapiens, UniProt O60674); assay: Kinobeads assay, JAK2 (competition binding in cell lysate, dot blot detection); conditions: mixed Molt4/Ramos lysate
T2 construct: endogenous in cells; host or cells: Molt4 (ATCC CRL-1582) and Ramos (ATCC CRL-1596) cell lysate; mixed Molt4/Ramos lysate 1:2
Experimental: as §1, §2, §3, §4, §5, §6

T2 sequence (O60674 whole entry): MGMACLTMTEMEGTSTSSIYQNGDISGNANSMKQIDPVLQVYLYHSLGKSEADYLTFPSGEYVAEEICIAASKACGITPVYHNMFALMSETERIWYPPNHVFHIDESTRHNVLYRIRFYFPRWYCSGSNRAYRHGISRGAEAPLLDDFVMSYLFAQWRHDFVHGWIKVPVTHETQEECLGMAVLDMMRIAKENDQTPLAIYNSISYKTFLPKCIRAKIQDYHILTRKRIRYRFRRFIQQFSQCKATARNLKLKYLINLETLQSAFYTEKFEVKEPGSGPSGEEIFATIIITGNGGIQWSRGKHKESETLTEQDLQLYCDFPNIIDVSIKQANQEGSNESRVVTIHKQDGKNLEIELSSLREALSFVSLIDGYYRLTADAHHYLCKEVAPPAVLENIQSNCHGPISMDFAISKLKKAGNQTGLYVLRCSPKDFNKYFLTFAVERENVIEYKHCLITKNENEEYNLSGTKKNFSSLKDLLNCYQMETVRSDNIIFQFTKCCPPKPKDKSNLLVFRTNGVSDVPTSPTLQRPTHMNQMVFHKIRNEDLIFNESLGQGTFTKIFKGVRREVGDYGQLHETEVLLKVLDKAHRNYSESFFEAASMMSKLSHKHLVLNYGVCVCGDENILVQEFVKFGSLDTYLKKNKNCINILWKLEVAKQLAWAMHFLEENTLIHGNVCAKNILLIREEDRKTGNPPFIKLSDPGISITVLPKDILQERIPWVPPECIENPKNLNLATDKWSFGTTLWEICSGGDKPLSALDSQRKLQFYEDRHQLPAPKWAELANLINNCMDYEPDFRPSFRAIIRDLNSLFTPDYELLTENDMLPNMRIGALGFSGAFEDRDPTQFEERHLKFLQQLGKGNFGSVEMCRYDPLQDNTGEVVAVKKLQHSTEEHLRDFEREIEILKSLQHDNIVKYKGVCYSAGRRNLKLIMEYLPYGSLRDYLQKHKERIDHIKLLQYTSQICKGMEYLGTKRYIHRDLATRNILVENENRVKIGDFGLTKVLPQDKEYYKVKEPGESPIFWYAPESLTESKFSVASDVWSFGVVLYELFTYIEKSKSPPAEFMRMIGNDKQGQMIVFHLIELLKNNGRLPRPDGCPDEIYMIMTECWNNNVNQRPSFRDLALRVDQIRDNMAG

Compound	IC50 (JAK3) [nM]	IC50 (JAK2) [nM]
Cn1cc(Nc2ncc3cnn(CC4CCCN(C(=O)CC#N)C4)c3n2)cn1 (stereo not drawn) [Example 26, 3-(3-((6-((1-methyl-1H-pyrazol-4-yl)amino)-1H-pyrazolo[3,4-d]pyrimidin-1-yl)methyl)piperidin-1-yl)-3-oxopropanenitrile]	< 100	1000 to 10000
Cn1cc(Nc2ncc3cnn(CC4CN(CCC#N)C4)c3n2)cn1 [Example 49, 3-(3-((6-((1-methyl-1H-pyrazol-4-yl)amino)-1H-pyrazolo[3,4-d]pyrimidin-1-yl)methyl)azetidin-1-yl)propanenitrile]	100 to 1000	> 10000
Cn1cc(Nc2ncc3cnn(CC4CCCN(CCCS(C)(=O)=O)C4)c3n2)cn1 (stereo not drawn) [Example 62, N-(1-methyl-1H-pyrazol-4-yl)-1-((1-(3-(methylsulfonyl)propyl)piperidin-3-yl)methyl)-1H-pyrazolo[3,4-d]pyrimidin-6-amine]	< 100	1000 to 10000
COCCOC(=O)N1CCCC(Cn2ncc3cnc(Nc4cnn(C)c4)nc32)C1 (stereo not drawn) [Example 45, 2-methoxyethyl 3-((6-((1-methyl-1H-pyrazol-4-yl)amino)-1H-pyrazolo[3,4-d]pyrimidin-1-yl)methyl)piperidine-1-carboxylate]	100 to 1000	> 10000
COCCCN1CCCC(Cn2ncc3cnc(Nc4cnn(C)c4)nc32)C1 (stereo not drawn) [Example 58, 1-((1-(3-methoxypropyl)piperidin-3-yl)methyl)-N-(1-methyl-1H-pyrazol-4-yl)-1H-pyrazolo[3,4-d]pyrimidin-6-amine]	100 to 1000	> 10000
Cn1cc(Nc2ncc3cnn(C4CCCNC4)c3n2)cn1 (stereo not drawn) [Example 10, N-(1-methyl-1H-pyrazol-4-yl)-1-(piperidin-3-yl)-1H-pyrazolo[3,4-d]pyrimidin-6-amine]	1000 to 10000	> 10000
Cn1cc(Nc2ncc3cnn(C4CCNCC4)c3n2)cn1 [Example 12, N-(1-methyl-1H-pyrazol-4-yl)-1-(piperidin-4-yl)-1H-pyrazolo[3,4-d]pyrimidin-6-amine]	1000 to 10000	> 10000
Cn1cc(Nc2ncc3cnn(C4CCN(C(=O)CC#N)CC4)c3n2)cn1 [Example 24, 3-(4-(6-((1-methyl-1H-pyrazol-4-yl)amino)-1H-pyrazolo[3,4-d]pyrimidin-1-yl)piperidin-1-yl)-3-oxopropanenitrile]	100 to 1000	1000 to 10000
N#CCCN1CCCC(Cn2ncc3cnc(Nc4cnn(CC(F)F)c4)nc32)C1 (stereo not drawn) [Example 57, 3-(3-((6-((1-(2,2-difluoroethyl)-1H-pyrazol-4-yl)amino)-1H-pyrazolo[3,4-d]pyrimidin-1-yl)methyl)piperidin-1-yl)propanenitrile]	< 100	> 10000
CCC(C1CCCCC1)n1ncc2cnc(Nc3cnn(C)c3)nc21 (stereo not drawn) [Example 18, 1-(1-Cyclohexylpropyl)-N-(1-methyl-M-pyrazol-4-yl)-1H-pyrazolo[3,4-c]pyrimidin-6-amine]	100 to 1000	> 10000

Further lines, results first:

IC50 (JAK3) [nM]	IC50 (JAK2) [nM]	Compound
100 to 1000	1000 to 10000	COCCC(=O)N1CCCC(Cn2ncc3cnc(Nc4cnn(C)c4)nc32)C1 (stereo not drawn) [Example 27, 3-methoxy-1-(3-((6-((1-methyl-1H-pyrazol-4-yl)amino)-1H-pyrazolo[3,4-d]pyrimidin-1-yl)methyl)piperidin-1-yl)propan-1-one]
100 to 1000	> 10000	Cn1cc(Nc2ncc3cnn(CCC4CCCNC4)c3n2)cn1 (stereo not drawn) [Example 30, N-(1-methyl-1H-pyrazol-4-yl)-1-(2-(piperidin-3-yl)ethyl)-1H-pyrazolo[3,4-d]pyrimidin-6-amine]
< 100	1000 to 10000	CCNC(=O)N1CCCC(Cn2ncc3cnc(Nc4cnn(C)c4)nc32)C1 (stereo not drawn) [Example 51, N-ethyl-3-((6-((1-methyl-1H-pyrazol-4-yl)amino)-1H-pyrazolo[3,4-d]pyrimidin-1-yl)methyl)piperidine-1-carboxamide]
100 to 1000	1000 to 10000	Cn1cc(Nc2ncc3cnn(CC4CCNC4)c3n2)cn1 (stereo not drawn) [Example 40, N-(1-methyl-1H-pyrazol-4-yl)-1-(pyrrolidin-3-ylmethyl)-1H-pyrazolo[3,4-d]pyrimidin-6-amine]
100 to 1000	> 10000	CC(C)NC(=O)CN1CCCC(Cn2ncc3cnc(Nc4cnn(C)c4)nc32)C1 (stereo not drawn) [Example 63, N-isopropyl-2-(3-((6-((1-methyl-1H-pyrazol-4-yl)amino)-1H-pyrazolo[3,4-d]pyrimidin-1-yl)methyl)piperidin-1-yl)acetamide]
< 100	1000 to 10000	CN(C)C(=O)N1CCCC(Cn2ncc3cnc(Nc4cnn(C)c4)nc32)C1 (stereo not drawn) [Example 65, N,N-dimethyl-3-((6-((1-methyl-1H-pyrazol-4-yl)amino)-1H-pyrazolo[3,4-d]pyrimidin-1-yl)methyl)piperidine-1-carboxamide]
100 to 1000	1000 to 10000	CC(=O)NC1CCC(n2ncc3cnc(Nc4cnn(C)c4)nc32)CC1 (stereo not drawn) [Example 22, N-(4-(6-((1-methyl-1H-pyrazol-4-yl)amino)-1H-pyrazolo[3,4-d]pyrimidin-1-yl)cyclohexyl)acetamide]
< 100	1000 to 10000	Cn1cc(Nc2ncc3cnn(CC4CCCN(CC#N)C4)c3n2)cn1 (stereo not drawn) [Example 54, 2-(3-((6-((1-methyl-1H-pyrazol-4-yl)amino)-1H-pyrazolo[3,4-d]pyrimidin-1-yl)methyl)piperidin-1-yl)acetonitrile]

From patent US20130131043A1, “PYRAZOLE COMPOUNDS AS JAK INHIBITORS” (priority 2010, published 2013)
